Results reported in article PMC4336141, “Repurposing Auranofin as a Lead Candidate for Treatment of Lymphatic Filariasis and Onchocerciasis” (PLoS Neglected Tropical Diseases, 2015).

Tests used:
[1] = tested on: adult B. malayi; experiment: Adult Brugia malayi worm motility assay (Worminator) in vitro; type: cell-based; details: for IC50: B. malayi, Adult, Day 3, motility
Procedure: (§1) Adult female and male Brugia (B. malayi and B. pahangi) were shipped from TRS Labs Inc., Athens, GA and assayed using methods described by Marcellino et al. (2012). Individual females were placed in each well of a 24-well plate with media (RPMI-1640 with 25 mM HEPES, 2.0 g/L NaHCO3, 5% heat inactivated FBS, and 1X Antibiotic/Antimycotic solution). Excess media was removed from plates using a Biomek FxP, leaving 500 μL of media per well. Initial screening of a library of FDA-approved compounds, compiled by the Small Molecule Discovery Center at the University of California San Francisco, was conducted at 10 μM per compound, and 1% DMSO was used as a negative control. All drugs including auranofin (Enzo Life Sciences, Farmingdale, NY) were dissolved in DMSO (Sigma-Aldrich, St. Louis, MO) and 10 mM stock solutions were stored at -20°C. Four worms were used as replicates for each concentration and worm plates were kept in a 37°C, 5% CO2 incubator for four days.
(§2) To determine the effect of a compound on worm motility, individual worm movements were counted as the number of pixels displaced per second by each worm in each well using the Worminator. Each plate of worms was video recorded for approximately 60 seconds, and mean movement units (MMUs) were determined for individual worms. Percent inhibition of motility was calculated by dividing the MMUs of the treated worms by the control average MMUs, subtracting the value from 1.0, flooring the values to zero and multiplying by 100%. Videos were recorded for 4 days, including the first day of the assay (Day 0). IC50 determinations were conducted at 10 μM, 3 μM, 1 μM, 0.3 μM, 0.1 μM and 0.03 μM, with 1% DMSO used as a control. IC50 assays were repeated at the same concentrations and at six point, three-fold dilutions from 1 μM to 0.003 μM or 3 μM to […] to ensure that activity was consistent between assays. Prism 4.0 was used to calculate IC50 values using a non-linear regression curve fit. The means of all IC50s with R^2 values greater than or equal to 0.7 are reported.

[2] = tested on: adult B. pahangi; experiment: Adult Brugia pahangi worm motility assay (Worminator) in vitro; type: cell-based; details: for IC50: B. pahangi, Adult, Day 3, motility
Procedure: as §1, §2

[3] = tested on: adult male O. ochengi; experiment: Adult male Onchocerca ochengi motility scoring in vitro; type: cell-based; details: Day 5, motility
[4] = tested on: O. volvulus L3; experiment: Onchocerca volvulus L3 molting inhibition in vitro; type: cell-based; details: O. volvulus L3, Day 6, inhibition of molting
Procedure: L3 stage larvae previously collected and cryopreserved in Cameroon were rapidly thawed in a 37°C water bath and washed in incomplete media comprised of a 1:1 ratio of Medium NCTC-109 and IMDM + GlutaMax-I containing 1X glutamine, penicillin, and streptomycin (all from Gibco by Life Technologies, Grand Island, NY). The number of worms was adjusted to about 10 worms per 50 μL in complete medium containing 20% heat inactivated FCS. Worms were distributed into the wells of a 96-well plate containing 50 μL of 1.5 × 10^5 normal human PBMCs. 100 μL of 2X auranofin (final concentrations of 30 μM, 10 μM, 3 μM, 1 μM and 0.3 μM) were added to each well for a final volume of 200 μL. Each concentration was tested in triplicate. Controls included 0.05% DMSO in complete medium and complete medium only with neither DMSO nor compound added. The 96-well plates were then incubated at 37°C in a 5% CO2 incubator for 6 days, then molting was assessed using an inverted microscope. Molting was determined in each well by counting the presence of fourth-stage larvae (L4) and empty casts of the L3. The percent inhibition of molting was calculated based on the number of treated larvae that were able to molt in comparison to the number of control larvae that had successfully molted. Prism 4.0 for Windows was used to calculate IC50s.

[5] = tested on: B. pahangi; experiment: Worm retrieval from B. pahangi infected gerbils treated orally; type: in vivo, Mongolian gerbils (Meriones unguiculatus); details: for reduction in worm burden: 48 doses over 28 days, vs vehicle
Procedure: Animal studies were performed under IACUC approval #AN085723–02 to test the efficacy of auranofin in vivo. Male Mongolian gerbils (Meriones unguiculatus, Charles River Laboratories International, Inc., Wilmington, MA) were injected intraperitoneally (IP) with 300 B. pahangi L3 (Filariatech, Inc., Athens, GA) and treated 3 months post-infection. Auranofin was dissolved in 100% ethanol at 4 mg/mL and mixed 1:1 with PBS. Vehicle doses consisted of the same mixture of ethanol and PBS but without auranofin. Doses (up to 200 μl) were given to gerbils orally at 5 mg/kg body weight, BID weekdays and SID weekends for a total of 48 doses over 4 weeks.
Two studies (Study 1 and Study 2) were conducted using the same protocols and the same dosing schedule except that in Study 1, two gerbils from the auranofin treatment group and two gerbils from the vehicle group were treated for 14 days and were necropsied 2 hours after their last dose (interim necropsy) to determine plasma gold levels (from auranofin). The remaining gerbils in Study 1 were treated for 28 days and were necropsied 11, 14, or 16 days after the end of dosing. In Study 2, all gerbils were treated for 28 days and were necropsied 16 days after the end of dosing. For both of these in vivo studies, worms were collected from the gerbil’s peritoneal cavity, counted, sexed and examined under a dissecting microscope. For each study a two-tailed Student’s T-test assuming equal variance was conducted using Microsoft Excel to determine the statistical significance of the difference in mean worm retrieval between the auranofin treated and vehicle treated groups. Gerbil blood was collected by cardiac puncture and plasma was sent to NMS Labs, Willow Grove, PA to determine plasma gold levels (elemental gold analysis) by graphite furnace atomic absorption spectroscopy.

[6] = tested on: cysteine protease cathepsin B; design: method as in PMID 16789749; details: cited from earlier work
[7] = target: glutathione peroxidase; design: method as in PMID 9685351; details: higher IC50; cited from earlier work
[8] = target: glutathione reductase; design: method as in PMID 9685351; details: higher IC50; cited from earlier work
[9] = Study 1 interim necropsy, 14 days of treatment

`CC[PH](CC)(CC)[Au][S][C@@H]1O[C@H](COC(C)=O)[C@@H](OC(C)=O)[C@H](OC(C)=O)[C@H]1OC(C)=O` [auranofin, 2,3,4,6-tetra-O-acetyl-1-thio-beta-D-glucopyranosato-S (triethylphosphine) gold] showed an IC50 ([1]; Female) of 1100 nM, an IC50 ([1]; Male) of 300 nM and an inhibition of motility ([1]; female B. malayi, 3 μM, within 18 hours of incubation) of 97%. For the same molecule, the IC50 ([2]; Female) was 500 nM, the IC50 ([2]; Male) was 100 nM and the inhibition of motility ([2]; female B. pahangi, 3 μM, within 18 hours of incubation) was 97%. For the same molecule, the IC50 [3] was 400 nM, the IC50 [4] was 300 nM and the “reduction in worm burden” value ([5]; Study 1, 5 mg/kg oral, not statistically significant (p > 0.05)) was 58%. For the same molecule, the “average number of worms” value ([5]; Study 1, all treated animals (n = 9), vehicle 9.4) was 4.0 worms, the female worms [5, 9] was 7 and the male worms [5, 9] was 4. For the same molecule, the “total number of worms” value ([5]; Study 1 interim necropsy, 14 days of treatment, two gerbils, vehicle 43) was 11, the male worms recovered ([5]; Study 2) was 11 and the “reduction in worm burden” value ([5]; Study 2, 5 mg/kg oral, necropsy 16 days after end of dosing, p = 0.01) was 91%. The female worms recovered ([5]; Study 2, remaining female encapsulated with host tissue) was 1, the “mean worms per gerbil” value ([5]; Study 2, vehicle 32) was 3 worms per gerbil and the total worms recovered ([5]; Study 2, vehicle 161) was 12. For the same molecule, the IC50 [6] was roughly 250000 nM, the “IC50 relative to TrxR isolated from human placenta” value [7] was “about 1000 fold” and the “IC50 relative to TrxR isolated from human placenta” value [8] was “about 1000 fold”.
